Holding throughout (format): cell-based
Assay [1] deals with T1, human SGLT5 (Homo sapiens, UniProt A0PJK1).
T1 construct: expressed in transfected cells
T1 sequence (A0PJK1 1-596): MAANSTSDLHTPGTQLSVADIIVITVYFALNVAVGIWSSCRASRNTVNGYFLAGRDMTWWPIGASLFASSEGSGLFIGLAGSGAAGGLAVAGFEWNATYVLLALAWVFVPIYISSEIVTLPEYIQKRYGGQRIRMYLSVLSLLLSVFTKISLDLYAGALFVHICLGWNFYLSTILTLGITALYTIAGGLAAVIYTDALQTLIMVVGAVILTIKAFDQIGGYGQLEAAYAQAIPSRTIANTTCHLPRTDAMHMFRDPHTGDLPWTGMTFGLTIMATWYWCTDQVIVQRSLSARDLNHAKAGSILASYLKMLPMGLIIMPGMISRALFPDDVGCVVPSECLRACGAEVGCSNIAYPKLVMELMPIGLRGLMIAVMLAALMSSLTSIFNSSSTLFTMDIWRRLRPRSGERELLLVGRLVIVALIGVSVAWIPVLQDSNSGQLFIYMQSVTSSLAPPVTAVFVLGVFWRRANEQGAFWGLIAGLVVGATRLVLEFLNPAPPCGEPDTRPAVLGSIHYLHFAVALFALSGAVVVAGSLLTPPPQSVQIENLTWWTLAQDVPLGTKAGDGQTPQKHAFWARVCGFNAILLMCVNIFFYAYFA
The assay can be described thus: Inhibition of 10 µM radiolabelled 1,5-AG transport in HEK293T cells overexpressing human SGLT5. The protocol:
(§1) For a typical transporter experiment we proceeded as follows. […] To minimize cell loss during the various washing steps in the radioactive uptake experiments, the wells where the cells were seeded were previously coated with poly- D-lysine, which improved their adhesion to the plastic surface of the wells. For this, each well of the 24-well plates was treated with 200 µl of a 0.01% poly-L-lysine solution for 10 min, washed 3 times with 1 ml of sterilized water and left to dry for 2 h. Only then could the 24-well plates be seeded with the appropriate cell lines and cultured overnight at 37 °C in 5% CO2.
(§2) On day two, the radioactive uptake assay could be performed. The cell culture media was removed by aspiration and cells were incubated for 20 min at 37 °C and 5% CO2 with a basal medium (10 mM HEPES, pH 7.4, 1 mM CaCl2, 1 mM MgCl2, 2 mM KCl) containing 140 mM choline chloride to deplete intracellular […] ions. This was subsequently replaced with the uptake medium (basal medium + 140 mM NaCl, 25 μM cytochalasin B, 1 mg/ml BSA) containing either radioactive U-[^14C]-mannose (15,000 cpm/well) or 2-[^3H]-1,5-AG (30,000 cpm/well) and respectively, non-radioactive mannose or 1,5-AG, at the required concentration in the experiment. Importantly, when measuring the transport of mannose, the uptake media also contained 0.5 mM glucose. This resulted from the need to reduce the background transport of mannose in control HEK293T cells in order to optimize the transport assay for this sugar in our model cell lines. Consequently, after testing various inhibitors (Supplementary Fig. 1), 0.5 mM glucose + 25 µM cytochalasin B appeared as the best combination to decrease efficiently the endogenous transport of mannose in control cells without affecting the transport of mannose in model cell lines overexpressing SGLT4 and SGLT5. Therefore in the radioactive uptake assays for mannose, the uptake medium was: basal uptake medium + 140 mM NaCl, 25 μM cytochalasin B, 0.5 mM glucose and 1 mg/ml BSA to which we added U-[^12C + ^14C]-mannose as described above.
(§3) Once the uptake medium was added to the cells, the plates were incubated at 37 °C in 5% CO2 during the required time. […] In each experiment, the transport activities were calculated after subtracting a “blank” value, corresponding to the radioactivity in the appropriate control cells (HEK293T cells that were stably or transiently transfected with one of the parent plasmids pEF6/MycHisA, pEF6HisB, pUB82 or pUB83 with no inserted cDNA) that were analyzed in parallel.
(§4) The transport experiments to study the specificity of SGLT4 or SGLT5, were performed in the presence of 10 µM U-[^14C + ^12C]-mannose (for SGLT4) or 2-[^3H + ^1H]-1,5-AG (for SGLT5) and increasing concentrations of various sugars tested. The transport experiments to study the inhibition of empagliflozin, dapagliflozin or remogliflozin, on the transport of 1,5-AG by SGLT5 or its variants were performed in the presence of 10 µM 2-[^3H + ^1H]-1,5-AG and increasing concentrations of the various gliflozins tested.

For assay [2], the target named is T1, human SGLT5. The assay can be described thus: Radioactive uptake assay (saturation kinetics) in HEK293T cells stably overexpressing human SGLT5-iso2. Particulars: for hSGLT5 Vmax: transport of the labelled substrate, Fig. 2B.
Excerpt: This assay was used to study (1) the transport of 1,5-AG or mannose by the HEK293T model cell lines that stably overexpressed the various transporters or by the transiently transfected HEK293T cells using JetPEI® as a transfection agent prepared as described above and (2) the substrate specificity of each transporter.
as §1
On day two, the radioactive uptake assay could be performed. The cell culture media was removed by aspiration and cells were incubated for 20 min at 37 °C and 5% CO2 with a basal medium (10 mM HEPES, pH 7.4, 1 mM CaCl2, 1 mM MgCl2, 2 mM KCl) containing 140 mM choline chloride to deplete intracellular […] ions. This was subsequently replaced with the uptake medium (basal medium + 140 mM NaCl, 25 μM cytochalasin B, 1 mg/ml BSA) containing either radioactive U-[^14C]-mannose (15,000 cpm/well) or 2-[^3H]-1,5-AG (30,000 cpm/well) and respectively, non-radioactive mannose or 1,5-AG, at the required concentration in the experiment. […]
as §3

In a further assay the target is T2, human SGLT4 (Homo sapiens, UniProt Q2M3M2).
T2 construct: expressed in transfected cells
T2 sequence (Q2M3M2 1-681): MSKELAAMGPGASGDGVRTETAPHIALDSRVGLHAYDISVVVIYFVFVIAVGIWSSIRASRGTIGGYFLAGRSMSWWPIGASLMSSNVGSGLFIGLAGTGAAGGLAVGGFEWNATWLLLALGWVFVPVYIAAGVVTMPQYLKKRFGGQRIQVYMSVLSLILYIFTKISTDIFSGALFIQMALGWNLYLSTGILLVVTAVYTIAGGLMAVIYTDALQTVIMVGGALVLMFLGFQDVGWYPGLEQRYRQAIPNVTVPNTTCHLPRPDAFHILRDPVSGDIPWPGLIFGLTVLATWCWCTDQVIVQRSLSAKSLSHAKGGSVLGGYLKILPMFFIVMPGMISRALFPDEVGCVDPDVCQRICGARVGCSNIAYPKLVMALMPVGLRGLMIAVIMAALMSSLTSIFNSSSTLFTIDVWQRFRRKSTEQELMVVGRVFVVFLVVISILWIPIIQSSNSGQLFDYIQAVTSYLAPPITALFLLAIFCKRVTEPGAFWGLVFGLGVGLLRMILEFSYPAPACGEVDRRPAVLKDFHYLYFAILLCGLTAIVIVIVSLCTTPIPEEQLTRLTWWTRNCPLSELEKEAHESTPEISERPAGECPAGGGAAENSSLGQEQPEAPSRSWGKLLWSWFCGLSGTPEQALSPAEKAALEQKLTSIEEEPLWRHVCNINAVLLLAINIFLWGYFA
Nature of the assay: Inhibition of 10 µM radiolabelled mannose transport in HEK293T cells overexpressing human SGLT4. Particulars: substrate 10 μM mannose. The protocol: as §1, §2, §3, §4

The mark [3] stands for this setting: substrate 10 μM 1,5-AG, unlabelled sugars, Fig. 3C, read-out: hSGLT5 IC50.

Where two headings read alike, the source gives them in different places.

Take `OC[C@H]1O[C@@H](c2ccc(Cl)c(Cc3ccc(O[C@H]4CCOC4)cc3)c2)[C@H](O)[C@@H](O)[C@@H]1O` [empagliflozin]: the IC50 on human SGLT5 [1] (10 µM 2-[1H+3H]-1,5-AG, Fig. 5C, read-out: IC50 for SGLT5-mediated 1,5-AG transport (gliflozins)) is 0.7 µM.

`OC[C@H]1OC[C@H](O)[C@@H](O)[C@@H]1O` [1,5-AG, 1,5-anhydroglucitol]: on human SGLT5 [2] (hSGLT5 WT, Table 1 experiments), the Vmax was 17.3 ± 0.3 pmol/min/10^5cells. Besides, at human SGLT5 [2], the “hSGLT5 Vmax” value is reported as 14.1 ± 0.8 pmol/min/10^5 cells. Also, the IC50 on human SGLT5 [1] (10 µM 2-[1H+3H]-1,5-AG, Supplementary Fig. 7, read-out: IC50 for 1,5-AG, SGLT5-WT) stood at 162 µM; on human SGLT5 [1] (setting [3]), 167 µM. Also, the “preference of 1,5-AG over glucose, difference in Ki” value on human SGLT5 [1] (SGLT5) came out at 20 fold. Also, the “hSGLT4 inhibition with 10 mM inhibitor” value on human SGLT4 (10 mM inhibitor) is recorded as “no inhibition”.

Regarding `OC[C@H]1OC(O)[C@@H](O)[C@@H](O)[C@@H]1O` (stereo partly shown) [Mannose, mannose], on human SGLT5 [2], the “hSGLT5 Vmax” value was determined as 44.7 ± 12.4 pmol/min/10^5 cells. Also, the IC50 turned out to be 380 µM on human SGLT5 [1] (setting [3]) and 125 µM on human SGLT4 (Fig. 3C, read-out: hSGLT4 IC50).

These data come from paper PMC10439028, “SGLT5 is the renal transporter for 1,5-anhydroglucitol, a major player in two rare forms of neutropenia” (Cellular and Molecular Life Sciences: CMLS, 2023).
